The test system of the data set is brain endothelial cells (RBMVEC) and astroglial cells (CTX TNA2).

Structures are written as SMILES.

Procedure: Each peptide was tested at different time points in triplicate next to an unseeded negative control (“Empty”) and quantitatively analyzed via HPLC using a calibration curve to determine the concentration of the peptide in the receiving chamber at each point in time (Figure 11). From these values, the volume of each chamber, and the respective time, a Papp permeability coefficient in cm²/s was calculated for each substance to represent its ability to cross the in vitro blood–brain barrier model.
An amount equaling 1 mg/mL TF2D-5 (A) or TF2D-5a (B) was added to an insert that was seeded and covered with endothelial and astroglial cells, representing the in vitro blood–brain barrier, or an empty insert serving as a control. After different time points, samples were taken and analyzed by quantitative HPLC analysis. Data given as mean ± SD out of three independent replicates.
Brain endothelial cells from rats and astroglial cells were used to cultivate the different sides of the porous membrane.
Brain endothelial cells from rats (RBMVEC, Cell Applications Inc., R840-05a, San Diego, CA, USA) were cultivated in Complete Classic medium (Cell Systems, Kirkland, WA, USA, 4Z0-500), and rat astroglial cells (CTX TNA2, ATCC, CRL-2006) were cultivated in Complete Classic medium (Cell Systems, Kirkland, WA, USA, 4Z0-500). The cells were allowed to grow in a humidified incubator with 5% CO2 at 37 °C and a maximum of 20 passages. The cells were passaged every 3 to 5 days, according to their confluence.
In order to set up the in vitro BBB model, the astroglial cells were seeded at a density of 600.000 cells/cm² on the outer (basolateral, “brain”) side of an insert with a porous membrane (Corning Transwell polycarbonate membrane cell culture inserts, CLS3415, 3 µM pore size) and allowed to grow/adhere overnight in the Complete Classic medium. The next day, brain endothelial cells were seeded at a density of 600.000 cells/cm² on the inner side (apical, “blood”) of the corresponding membrane. The seeded inserts were then cultivated to grow to full confluence over a period of 5 to 7 days, with the medium renewed daily. […] Prior to this, TEER (transendothelial electrical resistance values) were measured in each well to ensure the integrity of the in vitro BBB. At 0, 30, 60, 90, 120, 150, 180, and 240 min, 50 µL of the medium out of the outer chamber was taken and analyzed by HPLC. This 50 µL would then be replaced by the same amount of fresh serum-free medium to keep the fluid levels equal across both chambers. This slight dilution was factored into the following calculations. Furthermore, a dilution series of each reagent was analyzed alongside the samples as a calibration to quantify the analysis. […] The Papp values were calculated as follows (higher is better): Papp =(V/A∗C)∗(Dc/Dt)

On to `Cn1c(=O)c2c(ncn2C)n(C)c1=O` [Caffeine, reference compound], for which the Papp permeability coefficient was 31.8 ×10⁻⁶ cm/s.
As for `O=C1OC2(c3ccc(O)cc3Oc3cc(O)ccc32)c2ccccc21` [Fluorescein, reference compound], the Papp permeability coefficient worked out at 0.886 ×10⁻⁶ cm/s.

Values taken from publication PMC9917023, “Stabilization of Monomeric Tau Protein by All D-Enantiomeric Peptide Ligands as Therapeutic Strategy for Alzheimer’s Disease and Other Tauopathies” (International Journal of Molecular Sciences, 2023).
